From US6495578B1, “Sulfonamide derivatives having oxadiazole rings” (Shionogi & Co., Ltd., priority 1999, dated 2002)

tested on: not given; test: not given; details: not given

Q: For Cc1ccc(-c2nc(-c3ccc(S(=O)(=O)N[C@@H](C(=O)O)C(C)C)cc3)no2)cc1 [Compound A-1], which melting point is on record?
A: Its melting point is 208 to 209 °C.

biological target: T1, MMP-2 (Homo sapiens, UniProt P08253); test: Assay for inhibitory activities on MMP-2 (fluorogenic coumarin-labelled peptide substrate); format: biochemical; details: MMP-2 purchased from Calbiochem-Novabiochem; substrate MOCAc-Pro-Leu-Gly-Leu-A2Pr(DNP)-Ala-Arg-NH2
T1 construct: purchased Calbiochem-Novabiochem International, Inc
T1 sequence (P08253 110-660): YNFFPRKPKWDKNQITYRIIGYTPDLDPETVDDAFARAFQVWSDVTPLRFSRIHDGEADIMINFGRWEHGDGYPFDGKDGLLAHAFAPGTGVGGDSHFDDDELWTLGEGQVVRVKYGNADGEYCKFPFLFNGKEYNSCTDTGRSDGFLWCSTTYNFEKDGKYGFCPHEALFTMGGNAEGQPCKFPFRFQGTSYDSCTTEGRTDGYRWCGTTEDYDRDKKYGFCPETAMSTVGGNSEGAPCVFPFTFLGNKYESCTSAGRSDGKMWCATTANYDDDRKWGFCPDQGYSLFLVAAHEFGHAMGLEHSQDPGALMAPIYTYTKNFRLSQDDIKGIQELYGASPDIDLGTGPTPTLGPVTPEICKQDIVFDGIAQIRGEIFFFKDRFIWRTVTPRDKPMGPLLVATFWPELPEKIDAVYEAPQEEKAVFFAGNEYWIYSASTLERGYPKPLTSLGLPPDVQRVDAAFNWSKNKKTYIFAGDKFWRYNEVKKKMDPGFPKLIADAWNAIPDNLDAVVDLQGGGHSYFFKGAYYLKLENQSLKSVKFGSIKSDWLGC
Description: MMP-2 was purchased from Calbiochem-Novabiochem International, Inc.
The enzymatic activity on MMP-2 was analyzed by the method described in “C. Graham Knight, Frances Willenbrock and Gillian Murphy: A novel coumarin-labelled peptide for sensitive continuous assays of the matrix metalloproteinases: FEBS LETT., 296, (1992), 263-266”. The substrate: MOCAc-Pro-Leu-Gly-Leu-A2Pr(DNP)-Ala-Arg-NH2 was purchased from Peptide Institute, Inc., Osaka, Japan.
The measurement of the inhibitory activities (IC50) was carried out by the following four methods;
A) Reaction with substrate, enzyme (MMPs) and inhibitor
B) Reaction with substrate and inhibitor, without enzyme
C) Reaction with substrate and enzyme (MMPs), without inhibitor
D) Reaction with substrate only
IC50 values were calculated by using the following formula and each fluorescence values of above four methods (A to D).
IC50 means the concentration required to inhibit 50% of the enzyme activity.

Q: With CCCc1ccc(-c2nc(-c3ccc(S(=O)(=O)N[C@H](Cc4ccccc4)C(=O)O)s3)no2)cc1 [Compound B-5] as the compound, how does the IC50 read?
A: Its IC50 is 36.1 nM.

Q: Which IC50 does the source give for C[C@@H](NS(=O)(=O)c1ccc(-c2noc(-c3ccccn3)n2)s1)C(=O)O [Compound B-11] here?
A: Its IC50 is 614 nM.

Q: For CCc1ccc(-c2nc(-c3ccc(S(=O)(=O)N[C@H](C)C(=O)O)s3)no2)cc1 [Compound B-8], which IC50 is on record?
A: Its IC50 is 2.9 nM.

Q: For CCCc1ccc(-c2nc(-c3ccc(S(=O)(=O)NC(C(=O)O)C(C)C)cc3)no2)cc1 (centres unmarked) [Compound A-20], which IC50 is on record?
A: The IC50 was 0.883 nM.

Q: Which IC50 does the source give for C[C@@H](NS(=O)(=O)c1ccc(-c2noc(-c3ccc(F)cc3)n2)cc1)C(=O)O [Compound A-45] here?
A: Its IC50 is 31 nM.

Q: Which IC50 does the source give for CCc1ccc(-c2nc(-c3ccc(S(=O)(=O)NCC(=O)O)cc3)no2)cc1 [Compound A-59] here?
A: The IC50 was 20 nM.

Q: With Cc1ccc(-c2nc(-c3ccc(S(=O)(=O)N[C@@H](C(=O)O)C(C)C)cc3)no2)cc1 [Compound A-1] as the compound, how does the IC50 read?
A: Its IC50 is 4.62 nM.

Q: For O=C(O)CNS(=O)(=O)c1ccc(-c2noc(-c3cccs3)n2)cc1 [Compound A-62], which IC50 is on record?
A: Its IC50 is 196 nM.

Q: With CCc1ccc(-c2nc(-c3ccc(S(=O)(=O)N[C@H](Cc4ccccc4)C(=O)O)s3)no2)cc1 [Compound B-4] as the compound, how does the IC50 read?
A: The IC50 was 17.8 nM.

Q: Which IC50 does the source give for CCc1ccc(-c2nc(-c3ccc(S(=O)(=O)N[C@H](Cc4ccccc4)C(=O)O)cc3)no2)cc1 [Compound A-31] here?
A: Its IC50 is 4.98 nM.

Q: With CCCCc1ccc(-c2nc(-c3ccc(S(=O)(=O)N[C@@H](C(=O)O)C(C)C)cc3)no2)cc1 [Compound A-4] as the compound, how does the IC50 read?
A: The IC50 was 1.23 nM.

Q: For O=C(O)[C@@H](Cc1ccccc1)NS(=O)(=O)c1ccc(-c2noc(-c3cccnc3)n2)cc1 [Compound A-43], which IC50 is on record?
A: The IC50 was 171 nM.

Q: For CCCc1ccc(-c2nc(-c3ccc(S(=O)(=O)N[C@H](C(=O)O)C(C)C)cc3)no2)cc1 [Compound A-21], which IC50 is on record?
A: The IC50 was 126 nM.

Q: Which IC50 does the source give for O=C(O)[C@@H](Cc1ccccc1)NS(=O)(=O)c1ccc(-c2noc(-c3ccco3)n2)cc1 [Compound A-42] here?
A: The IC50 was 47 nM.

Q: Which IC50 does the source give for C[C@@H](NS(=O)(=O)c1ccc(-c2noc(-c3ccccc3)n2)cc1)C(=O)O [Compound A-44] here?
A: Its IC50 is 45 nM.

Q: For Cc1ccc(-c2nc(-c3ccc(S(=O)(=O)NCC(=O)O)cc3)no2)cc1 [Compound A-12], which IC50 is on record?
A: The IC50 was 51.6 nM.

Q: For Cc1ccc(-c2nc(-c3ccc(S(=O)(=O)NCC(=O)O)s3)no2)cc1 [Compound B-15], which IC50 is on record?
A: Its IC50 is 39 nM.

Q: With C[C@@H](NS(=O)(=O)c1ccc(-c2noc(-c3cccs3)n2)cc1)C(=O)O [Compound A-52] as the compound, how does the IC50 read?
A: Its IC50 is 36.8 nM.

Q: With Cc1ccc(-c2nc(-c3ccc(S(=O)(=O)N[C@H](C)C(=O)O)cc3)no2)cc1 [Compound A-10] as the compound, how does the IC50 read?
A: The IC50 was 9.17 nM.

Q: With O=C(O)CNS(=O)(=O)c1ccc(-c2noc(-c3ccc(F)cc3)n2)s1 [Compound B-14] as the compound, how does the IC50 read?
A: The IC50 was 224 nM.

Q: With CCCc1ccc(-c2nc(-c3ccc(S(=O)(=O)N[C@H](Cc4c[nH]c5ccccc45)C(=O)O)cc3)no2)cc1 [Compound A-65] as the compound, how does the IC50 read?
A: Its IC50 is 1.66 nM.

Q: Which IC50 does the source give for O=C(O)[C@@H](Cc1ccccc1)NS(=O)(=O)c1ccc(-c2noc(-c3ccc(Cl)cc3)n2)cc1 [Compound A-6] here?
A: Its IC50 is 13.9 nM.
